Where two headings read alike, the source gives them in different places.
Assays:
MRGPRX4 = MRGPRX4 (Homo sapiens, UniProt Q96LA9); assay: MRGPRX4 activation, Fluo-8 Ca2+ FLIPR assay in HEK293T cells stably expressing MRGPRX4; assay type: cell-based; design: key to MRGPRX4 activation, Average / MRGPRX4 activation, Ave.: fluorescence change dF/F0; conditions: for EC50: MRGPRX4 activation, Ca2+ fluorescence, no activation in tested range reported as III, read-out: Activity (EC50 μM)
Method in brief: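 Cells seeded overnight to >95% confluence, loaded 40-60 min at room temperature with 2 μM Fluo-8 AM, then kept in HHBS. Baseline read 30 s, compound added, signal followed 150 s more.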

human FXR (NR1H4) = target: T1, human FXR (NR1H4) (Homo sapiens, UniProt Q96RI1); assay: Human FXR (NR1H4) agonist assessment, FXRE-NanoLuc reporter in HEK293T cells; assay type: cell-based; conditions: for EC50: read-out: EC50
T1 sequence (Q96RI1 1-476 isoform Q96RI1-1): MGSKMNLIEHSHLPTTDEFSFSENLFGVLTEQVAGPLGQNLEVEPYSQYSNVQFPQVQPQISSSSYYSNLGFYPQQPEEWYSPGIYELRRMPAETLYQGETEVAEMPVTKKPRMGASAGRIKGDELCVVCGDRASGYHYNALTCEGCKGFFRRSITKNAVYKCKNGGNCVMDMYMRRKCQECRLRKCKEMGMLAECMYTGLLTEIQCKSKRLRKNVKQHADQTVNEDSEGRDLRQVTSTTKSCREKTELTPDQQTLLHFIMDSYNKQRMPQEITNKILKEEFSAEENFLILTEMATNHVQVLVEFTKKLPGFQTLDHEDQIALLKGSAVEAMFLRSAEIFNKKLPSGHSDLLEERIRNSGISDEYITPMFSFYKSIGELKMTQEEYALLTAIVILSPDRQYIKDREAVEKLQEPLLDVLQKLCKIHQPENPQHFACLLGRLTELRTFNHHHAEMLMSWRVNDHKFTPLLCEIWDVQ
Method in brief: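 HEK293T cells stably expressing human FXR with an FXRE-NanoLuc reporter were treated with compounds for 24 hr at 37 °C, with 0.01% DMSO as negative control. Medium was read for luminescence after 5 min with coelenterazine. EC50 was fitted by sigmoid to concentration-response data.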

[1] = FXR activation, HEK293T FXRE-NanoLuc reporter, 24 hr

Sequence of MRGPRX4 (Q96LA9 whole entry): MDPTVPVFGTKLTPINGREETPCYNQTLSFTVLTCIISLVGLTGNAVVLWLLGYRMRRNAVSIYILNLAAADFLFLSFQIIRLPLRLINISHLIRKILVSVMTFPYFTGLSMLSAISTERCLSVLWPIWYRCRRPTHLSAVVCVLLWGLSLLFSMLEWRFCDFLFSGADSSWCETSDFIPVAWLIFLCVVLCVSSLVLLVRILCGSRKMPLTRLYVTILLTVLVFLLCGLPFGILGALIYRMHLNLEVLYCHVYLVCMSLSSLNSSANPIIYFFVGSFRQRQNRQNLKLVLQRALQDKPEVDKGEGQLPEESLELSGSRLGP

| SMILES | EC50 (MRGPRX4) | Efficacy (maximum measured induction of NanoLuc, normalized to CDCA set as 100%) (human FXR (NR1H4); [1]) | EC50 (human FXR (NR1H4); [1]) | MRGPRX4 activation, fluorescence change (dF/F0), Average (MRGPRX4; Conc. (Log[M]) −4.5) | MRGPRX4 activation, Average (MRGPRX4; E3-9, Conc. (Log[M]) −4.0) | MRGPRX4 activation, Average (MRGPRX4; E3-9, Conc. (Log[M]) −4.5) | MRGPRX4 activation, Average (MRGPRX4; E3-9, Conc. (Log[M]) −5.0) | MRGPRX4 activation, Average (MRGPRX4; E3-9, Conc. (Log[M]) −5.4) | MRGPRX4 activation, Average (MRGPRX4; E3-9, Conc. (Log[M]) −5.9) | MRGPRX4 activation, Average (MRGPRX4; E3-9, Conc. (Log[M]) −6.4) | MRGPRX4 activation, Average (MRGPRX4; E3-9, Conc. (Log[M]) −6.9) | MRGPRX4 activation, Average (MRGPRX4; E3-9, Conc. (Log[M]) −7.3) | MRGPRX4 activation, Average (MRGPRX4; E3-9, Conc. (Log[M]) −7.8) | MRGPRX4 activation, Average (MRGPRX4; E3-9, Conc. (Log[M]) −8.3) | further results |
| --- | --- | --- | --- | --- | --- | --- | --- | --- | --- | --- | --- | --- | --- | --- | --- |
| CC[C@H]1[C@@H](O)[C@@H]2[C@H](CC[C@]3(C)[C@@H]([C@H](C)CCNC(=O)C(=O)NS(=O)(=O)c4cc(F)cc(F)c4)CC[C@@H]23)[C@@]2(C)CCCC[C@@H]12 [8-4] | > 100 µM | B (300%<efficacy <=400%) | < 1 µM | – | – | – | – | – | – | – | – | – | – | – | MRGPRX4 activation, Ave. (MRGPRX4; E3-7, Conc. (Log[M]) −4): −0.041; MRGPRX4 activation, Ave. (MRGPRX4; E3-7, Conc. (Log[M]) −4.5): −0.027; MRGPRX4 activation, Ave. (MRGPRX4; E3-7, Conc. (Log[M]) −5): −0.014; MRGPRX4 activation, Ave. (MRGPRX4; E3-7, Conc. (Log[M]) −5.5): −0.014; MRGPRX4 activation, Ave. (MRGPRX4; E3-7, Conc. (Log[M]) −6): 0.000; MRGPRX4 activation, Ave. (MRGPRX4; E3-7, Conc. (Log[M]) −7): 0.000 |
| CC[C@H]1[C@@H](O)[C@@H]2[C@H](CC[C@]3(C)[C@@H]([C@H](C)CCNC(=O)NS(=O)(=O)N4CC5CC5C4)CC[C@@H]23)[C@@]2(C)CCCC[C@@H]12 (stereo partly drawn) [5-12] | > 100 µM | C (100%<efficacy <=300%) | 1 to 10 µM | – | – | – | – | – | – | – | – | – | – | – | MRGPRX4 activation, Average (MRGPRX4; E3-6-2, 1st of 6 concentration columns (head not in rows shown)): 0.057; MRGPRX4 activation, Average (MRGPRX4; E3-6-2, 3rd of 6 concentration columns (head not in rows shown)): 0.023; MRGPRX4 activation, Average (MRGPRX4; E3-6-2, 6th of 6 concentration columns (head not in rows shown)): 0.013; MRGPRX4 activation, Average (MRGPRX4; E3-6-2, concentration not given): 0.013 |
| CC[C@H]1[C@@H](OC(=O)c2cccc(I)c2)[C@@H]2[C@H](CC[C@@]3(C)[C@H]2CC[C@]3(Cl)[C@H](C)CCC(=O)OC)[C@@]2(C)CCCC[C@@H]12 [1-6] | > 100 µM | D (efficacy <=100%) | > 10 µM | −0.031 | – | – | – | – | – | – | – | – | – | – | MRGPRX4 activation, fluorescence change (dF/F0), Average (MRGPRX4; Conc. (Log[M]) −4): 0.018; MRGPRX4 activation, fluorescence change (dF/F0), Average (MRGPRX4; Conc. (Log[M]) −5): −0.001; MRGPRX4 activation, fluorescence change (dF/F0), Average (MRGPRX4; Conc. (Log[M]) −5.5): −0.012; MRGPRX4 activation, fluorescence change (dF/F0), Average (MRGPRX4; Conc. (Log[M]) −6): −0.006; MRGPRX4 activation, fluorescence change (dF/F0), Average (MRGPRX4; Conc. (Log[M]) −7): −0.001; MRGPRX4 activation, fluorescence change (dF/F0), Average (MRGPRX4; Conc. (Log[M]) −8): 0.001; MRGPRX4 activation, fluorescence change (dF/F0), Average (MRGPRX4; Conc. (Log[M]) −9): −0.014 |
| CC[C@H]1[C@@H](O)[C@@H]2[C@H](CC[C@]3(C)[C@@H]([C@H](C)CCNC(=S)NS(=O)(=O)c4cccs4)CC[C@@H]23)[C@@]2(C)CCC(F)(F)C[C@@H]12 [11-3] | > 100 µM | – | < 1 µM | – | 0.003 | 0.010 | 0.015 | 0.015 | 0.015 | 0.008 | 0.010 | 0.015 | 0.018 | 0.051 | Efficacy (maximum measured induction of NanoLuc, normalized to CDCA set as 100%) (human FXR (NR1H4)): C (key: A: efficacy >400%; B: 300%<efficacy <=400%; C: 100%<efficacy <=300%; D: efficacy <=100%) |
| CC[C@H]1[C@@H](O)[C@@H]2[C@H](CC[C@]3(C)[C@@H]([C@H](C)CCNC(=O)NS(=O)(=O)c4ccc(C(C)(C)CF)cc4)CC[C@@H]23)[C@@]2(C)CCC(F)(F)C[C@@H]12 [10-1] | > 100 µM | B (300%<efficacy <=400%) | < 1 µM | – | 0.025 | 0.016 | 0.021 | 0.018 | 0.019 | 0.016 | 0.018 | 0.016 | 0.008 | 0.010 | – |
| CC[C@H]1[C@@H](O)[C@@H]2[C@H](CC[C@]3(C)[C@@H]([C@H](C)CNC(=O)NS(=O)(=O)c4ccc5c(c4)CCC(C)(C)O5)CC[C@@H]23)[C@@]2(C)CCCC[C@@H]12 [20-2] | > 100 µM | B (300%<efficacy <=400%) | 1 to 10 µM | – | 0.025 | 0.012 | 0.021 | 0.019 | 0.025 | – | – | – | – | – | – |
| CC[C@H]1[C@@H](O)[C@@H]2[C@H](CC[C@]3(C)[C@@H]([C@H](C)CCNC(=O)NS(=O)(=O)C4CCC(C)(C)CC4)CC[C@@H]23)[C@@]2(C)CCCC[C@@H]12 [5-5] | > 100 µM | C (100%<efficacy <=300%) | < 1 µM | 0.033 | – | – | – | – | – | – | – | – | – | – | MRGPRX4 activation, fluorescence change (dF/F0), Average (MRGPRX4; Conc. (Log[M]) −4): 0.083; MRGPRX4 activation, fluorescence change (dF/F0), Average (MRGPRX4; Conc. (Log[M]) −5): 0.017; MRGPRX4 activation, fluorescence change (dF/F0), Average (MRGPRX4; Conc. (Log[M]) −5.5): 0.020; MRGPRX4 activation, fluorescence change (dF/F0), Average (MRGPRX4; Conc. (Log[M]) −6): 0.027; MRGPRX4 activation, fluorescence change (dF/F0), Average (MRGPRX4; Conc. (Log[M]) −7): 0.060 |
| CC[C@H]1[C@@H](O)[C@@H]2[C@H](CC[C@]3(C)[C@@H]([C@H](C)COC(=O)NS(=O)(=O)c4ccc5c(c4)CCC(C)(C)O5)CC[C@@H]23)[C@@]2(C)CCCC[C@@H]12 [18-2] | > 100 µM | A (efficacy >400%) | < 1 µM | – | – | – | – | – | – | – | – | – | – | – | Activation (%) (MRGPRX4; second E3-8-1, 4.6 nM, n = 1): 2.86%; Activation (%) (MRGPRX4; second E3-8-1, 4.6 nM, n = 2): 3.17%; Activation (%) (MRGPRX4; second E3-8-1, 14 nM, n = 1): 3.79%; Activation (%) (MRGPRX4; second E3-8-1, 14 nM, n = 2): 3.79%; Activation (%) (MRGPRX4; second E3-8-1, 41 nM, n = 1): 3.17%; Activation (%) (MRGPRX4; second E3-8-1, 41 nM, n = 2): 1.93%; Activation (%) (MRGPRX4; second E3-8-1, 123 nM, n = 1): 3.48%; Activation (%) (MRGPRX4; second E3-8-1, 123 nM, n = 2): 2.86%; Activation (%) (MRGPRX4; second E3-8-1, 370 nM, n = 1): 3.48%; Activation (%) (MRGPRX4; second E3-8-1, 370 nM, n = 2): 3.48%; Activation (%) (MRGPRX4; second E3-8-1, 1111 nM, n = 1): 2.24%; Activation (%) (MRGPRX4; second E3-8-1, 1111 nM, n = 2): 2.55%; Activation (%) (MRGPRX4; second E3-8-1, 3333 nM, n = 1): 3.17%; Activation (%) (MRGPRX4; second E3-8-1, 3333 nM, n = 2): 1.93%; Activation (%) (MRGPRX4; second E3-8-1, 10000 nM, n = 1): 3.48%; Activation (%) (MRGPRX4; second E3-8-1, 10000 nM, n = 2): 2.24%; Activation (%) (MRGPRX4; second E3-8-1, 30000 nM, n = 1): 4.10%; Activation (%) (MRGPRX4; second E3-8-1, 30000 nM, n = 2): 3.48% |
| CC[C@H]1[C@@H](O)[C@@H]2[C@H](CC[C@]3(C)[C@@H]([C@H](C)CCNC(=O)NS(=O)(=O)c4cccs4)CC[C@@H]23)[C@@]2(C)CCC(F)(F)C[C@@H]12 [10-4] | > 100 µM | C (100%<efficacy <=300%) | < 1 µM | – | −0.004 | 0.001 | 0.008 | 0.022 | 0.013 | 0.015 | 0.013 | 0.010 | 0.010 | 0.020 | – |
| CC[C@H]1[C@@H](O)[C@@H]2[C@H](CC[C@]3(C)[C@@H]([C@H](C)CCNC(=O)NS(=O)(=O)c4ccc(C(C)(C)C(N)=O)cc4)CC[C@@H]23)[C@@]2(C)CCCC[C@@H]12 [5-16] | > 100 µM | C (100%<efficacy <=300%) | < 1 µM | 0.020 | – | – | – | – | – | – | – | – | – | – | MRGPRX4 activation, fluorescence change (dF/F0), Average (MRGPRX4; Conc. (Log[M]) −4.0): 0.030; MRGPRX4 activation, fluorescence change (dF/F0), Average (MRGPRX4; Conc. (Log[M]) −5.0): 0.010; MRGPRX4 activation, fluorescence change (dF/F0), Average (MRGPRX4; Conc. (Log[M]) −5.4): 0.020; MRGPRX4 activation, fluorescence change (dF/F0), Average (MRGPRX4; Conc. (Log[M]) −5.9): 0.020; MRGPRX4 activation, fluorescence change (dF/F0), Average (MRGPRX4; Conc. (Log[M]) −6.4): 0.013; MRGPRX4 activation, fluorescence change (dF/F0), Average (MRGPRX4; Conc. (Log[M]) −6.9): 0.013; MRGPRX4 activation, fluorescence change (dF/F0), Average (MRGPRX4; Conc. (Log[M]) −7.3): 0.013; MRGPRX4 activation, fluorescence change (dF/F0), Average (MRGPRX4; Conc. (Log[M]) −7.8): 0.013; MRGPRX4 activation, fluorescence change (dF/F0), Average (MRGPRX4; Conc. (Log[M]) −8.3): 0.025 |
